Data as given in patent publication US20200315950A1, “COMPOSITION FOR MODULATING THE GENES RESPONSIBLE FOR GENERAL SKIN FUNCTIONS, METHOD FOR MODULATING THE EXPRESSION OF GENES RESPONSIBLE FOR GENERAL SKIN FUNCTIONS, AND USE OF A PLANT EXTRACT” (Natura Cosmeticos S.A., priority 2016, published 2020).
Where “and” joins values, the source holds several entries; their conditions need not be identical. Equal values may be shown once.

Tested on: 180 genes in skin explants
Assay: Large scale gene expression profile assay (PCR array) in skin explants
Type: cell-based, human
Conditions: eyelid skin explants, 2 mg/cm^2 topical, 24 hours, threshold 30% increase or reduction
Method: A large scale gene expression profile assay (by PCR array) was performed of 180 genes in skin explants obtained subsequent to blepharoplasty and subjected to individual treatments with the present invention.
Initially, skin explants were obtained from the eyelids of females between 45 and 55 years of age, three (3) different donors of each age. The explants were split into halves and immediately inserted, in triplicate from each donor, into a culture medium and kept for 24 hours (half 1) and 72 hours (half 2) in a wet environment, at 37° C., 5% CO2. […]
Half (1) was collected and subjected to total RNA extraction. The quality of the extracted RNA was qualitatively (Bioanalyzer microcapillary electrophoresis) and quantitatively (Nanodrop spectrophotometer) assessed. […] The ΔCt values for the GAPDH (glyceraldehyde-3-phosphate dehydrogenase) reference gene and target gene were calculated by subtracting from each other the values for the experimental groups. […] Lastly, a relative quantification of the target genes was determined by using the equation: RQ=2−ΔΔCt. […] The statistical significance was assessed by using the t test followed by the Benjamini-Hochberg method (FDR—false discovery rate), which p-value<0.05 was considered significant. […]

Row | Molecule | number of genes modulated as compared to the untreated control
1 | hyaluronic acid [Hyaluronic Acid sample] | 162 genes and 146 genes
2 | C/C=C/C=C\CC/C=C/C(=O)NCC(C)C [spilanthol sample, spilanthol] | 163 genes
